Assay results as given in the NIST ThermoML archive (doi:10.1021/je060271a).

Details: Liquid, Vibrating tube method

CCCCCCC(=O)OCC(COC(=O)CCCCCC)(COC(=O)CCCCCC)COC(=O)CCCCCC [pentaerythritol tetraheptanoate]
Details	mass density [kg/m3]
343.16 K, 13701 kPa	950.5
343.16 K, 13714 kPa	950.6
343.16 K, 13726 kPa	950.6
343.16 K, 13738 kPa	950.7
343.16 K, 13753 kPa	950.7
343.16 K, 13764 kPa	950.6
343.16 K, 13779 kPa	950.7
343.16 K, 13792 kPa	950.7
343.16 K, 13806 kPa	950.8
343.16 K, 13818 kPa	950.6
343.16 K, 14528 kPa	951.2
343.16 K, 14542 kPa	951.2
343.16 K, 16080 kPa	952.4
343.16 K, 16100 kPa	952.3
343.16 K, 16118 kPa	952.2
343.16 K, 32564 kPa	962.8
343.16 K, 32603 kPa	963
343.16 K, 32650 kPa	963.1
343.16 K, 32688 kPa	963
343.17 K, 14556 kPa	951.3
343.17 K, 14573 kPa	951.2
343.17 K, 14631 kPa	951.4
343.17 K, 14645 kPa	951.3
343.17 K, 14662 kPa	951.3
343.17 K, 14676 kPa	951.3
343.17 K, 14690 kPa	951.3
343.17 K, 14707 kPa	951.4
343.17 K, 14721 kPa	951.4
343.17 K, 14735 kPa	951.3
343.17 K, 14750 kPa	951.3
343.17 K, 14767 kPa	951.3
343.17 K, 14782 kPa	951.4
343.17 K, 14796 kPa	951.5
343.17 K, 14814 kPa	951.5
343.17 K, 14828 kPa	951.3
343.17 K, 14843 kPa	951.4
343.17 K, 14858 kPa	951.4
343.17 K, 14873 kPa	951.5
343.17 K, 14890 kPa	951.5
343.17 K, 14902 kPa	951.5
343.17 K, 14922 kPa	951.4
343.17 K, 14937 kPa	951.4
343.17 K, 14952 kPa	951.5
343.17 K, 14966 kPa	951.6
343.17 K, 14984 kPa	951.7
343.17 K, 14999 kPa	951.6
343.17 K, 15013 kPa	951.5
343.17 K, 15032 kPa	951.7
343.17 K, 15048 kPa	951.5
343.17 K, 15063 kPa	951.4
343.17 K, 15077 kPa	951.6
343.17 K, 15092 kPa	951.6
343.17 K, 15110 kPa	951.6
343.17 K, 15125 kPa	951.6
343.17 K, 15140 kPa	951.7
343.17 K, 15158 kPa	951.6
